Results: US20100021398A1, “COMPOSITIONS AND METHODS FOR LIGHTENING SKIN AND PROTECTING SKIN FROM ULTRAVIOLET RADIATION WITH GLUTATHIONE” (priority 2008, published 2010)

Tests used:
[1] = unmodified glutathione, cited from earlier work
[2] = system: Mitochondrial SOD 2; assay: up-regulation of anti-oxidant enzyme SOD by glutathione; type: cell-based; settings: glutathione up-regulating anti-oxidant enzymes

N[C@@H](CCC(=O)N[C@@H](CS)C(=O)NCC(=O)O)C(=O)O [glutathione]
half-life in the blood stream ([1]; blood stream): about a minute and a half | half-life in the blood ([1]; blood): around 120 seconds | SOD increase [2]: 182%
